# Laboratory results as given in US6723897B2, “Methods for controlling gibberellin levels” (Monsanto Technology, LLC, priority 1998, dated 2004).
# Key:
# [1] = tested on: GA-deficient transgenic soybean line 719 (R5); assay: Hilum treatment of soybean seeds, seedling growth and development, GA-deficient soybean; type: in vivo, Glycine max; set-up: key to Emergence timing / Hypocotyl length (6 DAP) / 1st internode length (12 DAP) / 3rd internode length (20 DAP) / 2nd internode length (12 DAP): pos: emergence faster/stem segment longer than controls; 0: emergence timing/stem segment length similar to controls; neg: emergence slower/stem segment shorter than controls
# Outline: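 GA compounds dissolved in ethanol were applied as 1 μl droplets, each dried before the next, to the hilum of GA-deficient transgenic line 719 (R5) or wild-type soybean seeds; ethanol alone served as control. Emergence was scored over time as cotyledons at or above soil level, with growth measured after prolonged development.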
# [2] = tested on: non-transgenic soybean line A4922; assay: Field trial of seed coatings under soil compaction / different soils, wild-type soybean; type: in vivo, Glycine max; details: for Count (emergence) / Height (total plant height): A4922
# Method: The second trial (data reported in Tables 22-24) tested the precursors under conditions of soil compaction.
# As noted above, the second trial tested the noted precursors under conditions of soil compaction. These experiments are performed in the same manner as in the first trial, except that the soil is compacted with an all-terrain vehicle.
# “Height” equals total plant height in cm.
# [3] = tested on: wild-type soybean line A4922; assay: Field trial of seed coating application rates, wild-type soybean
# Method: GA3, GA3-3-acetate, GA5, GA9, and GA12 are evaluated in further field trials. […] The objectives of these tests are: 1) to determine if seed coatings, as compared to imbibition, of GA compounds facilitate rescue of constitutively GA-deficient transgenic dwarf soybeans (transgenic lines 719−2 plus 719+17) without causing elongation of wild-type soybeans (line A4922), and 2) to determine the seed treatment rate ranges for each of the selected GA compounds that would provide rescue of constitutively GA-deficient transgenic dwarf soybeans (transgenic lines 719−2 plus 719+17) without causing elongation of wild-type soybeans (line A4922).
# Seeds are treated with GA3, GA5, GA9, GA12, and GA3-3-acetate at rates of 0, 0.1, 1, 10, and 100 μg/seed. These GA compounds are applied to the seeds using a Hege 11 seed treater (Hans-Ulrich Hege GmbH & Co., Waldenburg, Germany); 100% acetone is used as the carrier solvent. The amount of liquid introduced into the seed treater is six fluid ounces/100 lbs seed rate. In addition, GA12 is tested at 50 μg/seed. The untreated control (UTC) consisted of dry, untreated seeds. Seeds of constitutively GA-deficient transgenic dwarf soybean line 719 and wild-type A4922 are sown in both light and heavy soil. The planting depth is 0.5 to 1 inch (1.27 to 2.54 cm); watering is via drip irrigation. The experiment is carried out in three repetitions, using 25 seeds/plot (one five foot (152.4 cm) long row) for line 719, and 75 seeds/plot (two eight foot (243.8 cm) rows) for line A4922. Observations included total emergence, number of dwarfs not rescued, uniformity in plant height, average plant height, visual notes, and digital photos.
# In all the experiments reported in Tables 17-24, treatments are replicated three times in a randomized block design. Data are analyzed using LSD (least significant difference) 0.05 probability using the PRM 5.0 Statistical Analysis Program (SAS Institute, North Carolina).
# [4] = L719, hilum treatment, rate response
# [5] = L719, hilum treatment, single rate per compound 8.3-16.5 μg/seed
# [6] = L719, hilum treatment, single rate per compound 9.7-16.5 μg/seed
# [7] = Heavy soil - Loose, target rate 0.5 μg/seed, Table 23
# [8] = Heavy soil - Loose, target rate 2.0 μg/seed, Table 23
# [9] = Heavy soil - Loose, target rate 4.0 μg/seed, Table 23
# [10] = Heavy soil - compacted, target rate 0.5 μg/seed, Table 23
# [11] = Heavy soil - compacted, target rate 2.0 μg/seed, Table 23
# [12] = Heavy soil - compacted, target rate 4.0 μg/seed, Table 23
# [13] = Heavy soil - loose, target rate 0.5 μg/seed, Table 22
# [14] = Heavy soil - loose, target rate 2.0 μg/seed, Table 22
# [15] = Light soil - Compacted, target rate 0.5 μg/seed, Table 22
# [16] = Light soil - Compacted, target rate 2.0 μg/seed, Table 22
# [17] = Light soil - Loose, target rate 0.5 μg/seed, Table 24
# [18] = Light soil - Loose, target rate 2.0 μg/seed, Table 24
# [19] = Light soil - Loose, target rate 4.0 μg/seed, Table 24
# [20] = Light soil - compacted, target rate 0.5 μg/seed, Table 24
# [21] = Light soil - compacted, target rate 2.0 μg/seed, Table 24
# [22] = Light soil - compacted, target rate 4.0 μg/seed, Table 24
smiles,measurement,setting,value
C=C1C[C@]23C[C@@]1(O)CC[C@H]2[C@@]12CC=C[C@@](C)(C(=O)O1)[C@H]2[C@@H]3C(=O)O [GA5],"Lowest rate where biological activity is observed, 1st internode length (10 DAP)",[1]; [4],1 μg/seed
same,"Lowest rate where biological activity is observed, 3rd internode length (20 DAP)",[1]; [4],>1 μg/seed
same,"Lowest rate where biological activity is observed, emergence timing",[1]; [4],1 μg/seed
same,"Lowest rate where biological activity is observed, hypocotyl length (5 DAP)",[1]; [4],0.1 μg/seed
same,1st internode length (12 DAP),[1]; [5],pos
same,Emergence timing,[1]; [5],pos
same,Hypocotyl length (6 DAP),[1]; [5],pos
same,2nd internode length (12 DAP),[1]; [6],pos
same,3rd internode length (20 DAP),[1]; [6],pos
same,rate giving increased internode elongation at internode number 3,[1]; hilum,greater than or equal to 1 μg/seed
same,biological activity on the first internode of line 719 compared to GA3 and GA9,"[1]; hilum, rate response",approximately 10 times more
same,stem elongation past the first internode,"[1]; initial seed dose approximately 10 μg/seed, hilum",measurable increases in internode length up to the third internode
same,Count (emergence),[2]; [7],32.0 abc
same,Height (total plant height),[2]; [7],5.3 g·cm·days
same,Count (emergence),[2]; [8],24.7 de
same,Height (total plant height),[2]; [8],6.7 bcd cm
same,Count (emergence),[2]; [9],26.7 b-e
same,Height (total plant height),[2]; [9],9.0 a cm
same,Count (emergence),[2]; [10],13.7 abc
same,Height (total plant height),[2]; [10],4.7 cde cm
same,Count (emergence),[2]; [11],9.0 bcd
same,Height (total plant height),[2]; [11],6.7 ab cm
same,Count (emergence),[2]; [12],6.7 cde
same,Height (total plant height),[2]; [12],6.7 ab cm
same,Count (emergence),[2]; [13],32 abc
same,Height (total plant height),[2]; [13],5.3 g·cm·days
same,Count (emergence),[2]; [14],25 cde
same,Height (total plant height),[2]; [14],6.7 bcd cm
same,Count (emergence),[2]; [15],37 abc
same,Height (total plant height),[2]; [15],6.7 cm·days
same,Count (emergence),[2]; [16],22 de
same,Height (total plant height),[2]; [16],9.0 c cm
same,Count (emergence),[2]; [17],44.7 ab
same,Height (total plant height),[2]; [17],6.0 fg·cm
same,Count (emergence),[2]; [18],41.0 abc
same,Height (total plant height),[2]; [18],10.0 bc cm
same,Count (emergence),[2]; [19],43.3 abc
same,Height (total plant height),[2]; [19],12.7 a cm
same,Count (emergence),[2]; [20],36.7 abc
same,Height (total plant height),[2]; [20],6.7 cm·days
same,Count (emergence),[2]; [21],21.7 de
same,Height (total plant height),[2]; [21],9.0 c cm
same,Count (emergence),[2]; [22],18.7 def
same,Height (total plant height),[2]; [22],11.7 a cm
same,plant height dose/response in wild-type line A4922 (FIG. 40),"[2]; ten days after planting, compacted soil",dose/response curves similar to that of GA3
same,"A4922 Height, cm, Heavy soil",[3]; 0.1 μg compound per seed,4.3 ghi cm
same,"A4922 Height, cm, Light soil",[3]; 0.1 μg compound per seed,6.0 fgh cm
same,"No. A4922 Emerged, Heavy soil",[3]; 0.1 μg compound per seed,32.3 b-g
same,"No. A4922 Emerged, Light soil",[3]; 0.1 μg compound per seed,51.7 bcd
same,"A4922 Height, cm, Heavy soil",[3]; 1 μg compound per seed,7.0 ef cm
same,"A4922 Height, cm, Light soil",[3]; 1 μg compound per seed,7.3 fg·cm
same,"No. A4922 Emerged, Heavy soil",[3]; 1 μg compound per seed,37.3 b-f
same,"No. A4922 Emerged, Light soil",[3]; 1 μg compound per seed,47.3 c-g
same,"A4922 Height, cm, Heavy soil",[3]; 10 μg compound per seed,17.3 b cm
same,"A4922 Height, cm, Light soil",[3]; 10 μg compound per seed,16.3 c cm
same,"No. A4922 Emerged, Heavy soil",[3]; 10 μg compound per seed,32.7 b-g
same,"No. A4922 Emerged, Light soil",[3]; 10 μg compound per seed,45.7 c-h
same,"A4922 Height, cm, Heavy soil",[3]; 100 μg compound per seed,22.3 a cm
same,"A4922 Height, cm, Light soil",[3]; 100 μg compound per seed,29.7 a cm
same,"No. A4922 Emerged, Heavy soil",[3]; 100 μg compound per seed,38.3 b-e
same,"No. A4922 Emerged, Light soil",[3]; 100 μg compound per seed,46.7 c-g
